Measured values: PubChem BioAssay (NCI)
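Compound exposure: 48 hours, 5 concentrations, 96-well plates. Definition used: TGI = concentration required for complete inhibition of growth.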

Columns and labels:
Experiment in all cases: DTP human tumour cell line panel, 48 h
SK-MEL-5 melanoma = tested on: SK-MEL-5 melanoma
KM12 colon = tested on: KM12 colon
PC-3 prostate = tested on: PC-3 prostate
OVCAR-8 ovarian = tested on: OVCAR-8 ovarian
NCI-H522 lung = tested on: NCI-H522 lung
NCI-H226 lung = tested on: NCI-H226 lung
M14 melanoma = tested on: M14 melanoma
TK-10 renal = tested on: TK-10 renal
SNB-75 CNS = tested on: SNB-75 CNS
HCT-15 colon = tested on: HCT-15 colon
DU-145 prostate = tested on: DU-145 prostate
SF-539 CNS = tested on: SF-539 CNS
SK-OV-3 ovarian = tested on: SK-OV-3 ovarian
MDA-MB-435 = tested on: MDA-MB-435
HOP-62 NSCLC = tested on: HOP-62 NSCLC
IGROV1 ovarian = tested on: IGROV1 ovarian
HT29 colon = tested on: HT29 colon

Compound	TGI (SK-MEL-5 melanoma) [µM]	TGI (KM12 colon) [µM]	TGI (PC-3 prostate) [µM]	TGI (OVCAR-8 ovarian) [µM]	TGI (NCI-H522 lung) [µM]	TGI (NCI-H226 lung) [µM]	TGI (M14 melanoma) [µM]	TGI (TK-10 renal) [µM]	TGI (SNB-75 CNS) [µM]	TGI (HCT-15 colon) [µM]	TGI (DU-145 prostate) [µM]	TGI (SF-539 CNS) [µM]	TGI (SK-OV-3 ovarian) [µM]	TGI (MDA-MB-435) [µM]	TGI (HOP-62 NSCLC) [µM]	TGI (IGROV1 ovarian) [µM]	TGI (HT29 colon) [µM]
CC(C)NC(NC(C)C)=C(S(=O)(=O)C(F)(F)C(F)(F)C(F)(F)C(F)(F)F)S(=O)(=O)C(F)(F)C(F)(F)C(F)(F)C(F)(F)F	> 100	> 100	> 100	> 100	> 100	> 100	> 100	> 100	> 100	> 100	> 100	> 100	> 100	> 100	> 100	> 100	> 100
COC(=O)/C=C(/C=C1/C(C#N)=C(N)N(c2ccc(Cl)cc2)C1(C)/C(=C/C(=O)OC)C(=O)OC)C(=O)OC (configuration not stated)	–	–	> 100	> 100	> 100	–	> 100	> 100	76	> 100	> 100	> 100	> 100	> 100	> 100	> 100	> 100
O=C1CCC2(c3ccccc3)Nc3ccncc3N12 (configuration not stated)	–	> 10	> 10	> 10	> 10	> 10	> 10	> 10	> 10	> 10	> 10	> 10	> 10	> 10	–	–	> 10
COc1ccc2c(c1)-c1nc(=S)n(CCCN(C)C)c3ccc([N+](=O)[O-])c(c13)N2	10.1	6.31	17.4	6.5	2.98	24.4	22.1	17.1	22.8	17.1	17.9	6.08	19.4	16.7	2.46	2.41	1.95
Cc1ccc(S(=O)(=O)c2ccsc2NC(=O)C(F)(F)F)cc1	44.4	> 100	> 100	> 100	> 100	> 100	> 100	> 100	77.8	> 100	> 100	> 100	> 100	> 100	> 100	> 100	> 100
COc1cc2ncnc(Nc3cccc(Cl)c3)c2cc1OC	17.4	28.8	70.2	26.1	18.4	14.8	25.4	3.61	13.4	52.8	38.3	32.8	28.9	34.1	58.7	10.3	34.9
Nc1nc(I)nc2c1ncn2C1OC(COS(N)(=O)=O)C(O)C1O (configuration not stated)	< 0.0113	0.0297	0.0423	< 0.0106	< 0.01	< 0.0159	0.028	0.071	< 0.0136	0.305	< 0.0193	< 0.014	0.0458	0.0138	0.0836	0.0401	0.0353
Cc1c(C)c(C)n(C2OC(CO)C(O)C(O)C2O)c(=S)c1C#N (configuration not stated)	> 100	> 100	> 100	> 100	> 100	> 100	> 100	> 100	> 100	> 100	> 100	> 100	> 100	> 100	> 100	> 100	> 100
CO/C(N)=C(\C#N)N=Cc1ccco1	> 100	> 100	> 100	> 100	> 100	> 100	> 100	> 100	> 100	> 100	> 100	–	> 100	> 100	> 100	> 100	> 100
N#CC12CNCC1CN=N2 (configuration not stated)	> 100	> 100	> 100	> 100	> 100	> 100	–	> 100	> 100	> 100	> 100	–	–	> 100	> 100	> 100	> 100
CCC(C)(C)C1CCC2c3c([nH]c4ccccc34)C3C(=O)N(c4ccc(OC)cc4)C(=O)C3C2C1 (configuration not stated)	–	12.2	26.6	30.4	20.6	37.3	> 100	56.2	42.2	> 100	28.9	33.5	77.6	43.5	23.2	90.8	24.9
Nc1nc(Cl)c(CO)c(NCC2(CO)CC(CCc3ccccc3)C2)n1 (configuration not stated)	39.4	14.2	> 100	35.6	86.3	36.3	–	> 100	51.2	> 100	> 100	> 100	–	26.5	99.3	–	81.6
CC(C)(C)C(=O)OCOP(=O)(OCOC(=O)C(C)(C)C)OCC1OC(n2ccc(=O)[nH]c2=O)C(N=[N+]=[N-])C1O (configuration not stated)	16.8	12.8	14.1	12.9	17.5	22	14.3	22.3	14.1	10.7	17.6	8.88	–	15.5	14.5	17.5	11.4
CCOC(=O)CCCNC(=O)CCCCC(=O)N(C)C	> 100	> 100	> 100	> 100	> 100	> 100	> 100	> 100	–	> 100	> 100	> 100	> 100	> 100	> 100	> 100	> 100
COC(=O)CC(c1cn(S(=O)(=O)c2ccc(C)cc2)c2ccccc12)C1C[C@@H](C(=O)OC)N(C(=O)OC(C)(C)C)C1=O (some centres not stated)	> 100	> 100	> 100	> 100	> 100	> 100	> 100	> 100	> 100	> 100	> 100	65.6	–	> 100	> 100	> 100	> 100
O=C1c2[nH]c3ccc(Br)cc3c2CCN1Cc1ccc(Cl)cc1	23	36.1	19.4	48.5	37.9	–	28.5	27.7	38.5	18.1	28.3	25.5	–	28.6	26.4	35.5	> 100
CC(C)(C)OC(=O)CN1C(=O)CC1CC(=O)c1ccccc1 (configuration not stated)	33.1	44.4	30.9	32.6	33.7	43.5	30.4	93.2	–	37.5	34.2	34.9	–	41.2	34.2	32.2	37.4
CC(C)(C)/C(=N\Nc1nc2ccccc2[nH]1)c1ccccn1	> 100	> 100	> 100	> 100	> 100	> 100	> 100	67.8	–	> 100	> 100	> 100	> 100	> 100	> 100	> 100	> 100
O=[N+]([O-])c1ccc2c(c1)S(=O)(=O)N1Cc3ccccc3CCN21	> 100	> 100	> 100	> 100	> 100	> 100	> 100	> 100	> 100	> 100	> 100	> 100	–	> 100	> 100	> 100	> 100
N#CC1C(=O)N(c2ccccc2)NC12OC(=O)c1ccncc12 (configuration not stated)	> 20	–	> 20	> 20	> 20	> 20	> 20	–	–	> 20	> 20	> 20	> 20	> 20	–	> 20	> 20
O=C(O)C1CCCN(CCc2c[nH]c3ccccc23)C1 (configuration not stated)	–	> 100	> 100	> 100	> 100	> 100	> 100	> 100	> 100	> 100	> 100	> 100	> 100	> 100	> 100	> 100	> 100
C/C(Cl)=N/OC(=O)Nc1ccc(S(N)(=O)=O)c(C)c1	26.1	41.2	32.3	> 56.2	3.45	47.6	25.2	17.9	34.2	3.86	30.5	–	> 58.3	29.6	34.9	33.4	> 77.7
C=C1[C@H](OC(C)=O)[C@H]2[C@@H](OC(C)=O)[C@@H](C)C[C@]2(C)C(=O)[C@H](C)/C=C/C(C)(C)C(=O)[C@H](OCC(C)C)[C@H]1OC(C)=O	> 25	> 25	> 25	> 25	> 25	> 25	> 25	> 25	> 25	> 25	> 25	> 25	> 25	> 25	> 25	> 25	–
O=c1[nH]nc(-c2ccccc2)n1-c1ccncc1	> 100	> 100	> 100	> 100	> 100	> 100	> 100	> 100	> 100	> 100	> 100	> 100	–	> 100	> 100	> 100	> 100
O=C(O)COCC(=O)N(CCOCCN(Cc1ccccc1)C(=O)COCC(=O)O)Cc1ccccc1	> 100	> 100	> 100	> 100	> 100	> 100	> 100	> 100	–	> 100	> 100	> 100	> 100	> 100	> 100	> 100	> 100
c1ccc2c(c1)CC1=C(O2)c2ccccc2OC1	44.3	> 100	> 100	> 100	44.5	> 100	> 100	94.3	–	72.6	> 100	71.6	> 100	86.3	> 100	> 100	> 100
c1ccc(-c2nc3ccccc3n3c(CN4CCCCC4)nnc23)cc1	> 100	–	> 100	> 100	> 100	> 100	> 100	> 100	40.7	> 100	> 100	> 100	> 100	> 100	> 100	> 100	> 100
O=C1CN(C(=O)C2CCCN2C(=O)C2CCCN2)C(=O)CN1 (configuration not stated)	> 100	> 100	> 100	> 100	> 100	> 100	> 100	> 100	> 100	> 100	> 100	–	> 100	> 100	> 100	> 100	> 100
Nc1cccnc1NCC1(CO)CCCC1	> 100	> 100	> 100	> 100	> 100	> 100	–	> 100	> 100	> 100	> 100	> 100	> 100	> 100	> 100	> 100	> 100
